According to article PMC6934184, “Selective DNA-PKcs inhibition extends the therapeutic index of localized radiotherapy and chemotherapy” (The Journal of Clinical Investigation, 2019):

Biological target: T1, CDK3/cyclin E1 (Homo sapiens, UniProt Q00526)
T1 construct: purchased Thermo Fisher Scientific (Life Technologies) SelectScreen
Experiment: SelectScreen LanthaScreen
Type: binding
Conditions: 1 µM
Procedure, shortened: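 NU5455 was profiled across the SelectScreen Broad panel of kinase activity and binding assays. Z'LYTE reactions such as CSF1R ran at apparent Km ATP, while the Adapta CAMK1 assay used ATP listed as 10. Values are given as percent.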

T1 sequence (Q00526 whole entry): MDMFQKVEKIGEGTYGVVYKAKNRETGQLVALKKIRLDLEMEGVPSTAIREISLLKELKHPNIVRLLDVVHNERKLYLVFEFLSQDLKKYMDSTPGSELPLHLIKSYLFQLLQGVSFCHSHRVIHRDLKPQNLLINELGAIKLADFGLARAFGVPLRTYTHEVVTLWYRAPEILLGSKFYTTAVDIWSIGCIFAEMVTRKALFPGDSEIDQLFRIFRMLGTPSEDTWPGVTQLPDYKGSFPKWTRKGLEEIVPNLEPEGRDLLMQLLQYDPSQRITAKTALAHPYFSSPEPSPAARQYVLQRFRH
T1 sequence (P24864 whole entry partner): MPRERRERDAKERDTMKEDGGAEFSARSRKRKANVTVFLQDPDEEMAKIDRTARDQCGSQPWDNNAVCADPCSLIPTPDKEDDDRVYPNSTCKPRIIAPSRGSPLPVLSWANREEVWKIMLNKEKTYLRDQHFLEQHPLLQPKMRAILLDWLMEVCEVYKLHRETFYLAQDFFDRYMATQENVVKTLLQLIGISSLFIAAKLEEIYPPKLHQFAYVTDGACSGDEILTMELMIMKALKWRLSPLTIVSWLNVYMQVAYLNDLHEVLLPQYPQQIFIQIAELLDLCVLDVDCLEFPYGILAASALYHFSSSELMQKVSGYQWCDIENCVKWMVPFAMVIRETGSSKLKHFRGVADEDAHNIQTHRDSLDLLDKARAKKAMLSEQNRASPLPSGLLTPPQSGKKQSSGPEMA

Structure (SMILES): CN(C(=O)CN1CCOCC1)c1ccc2sc3c(-c4cccc5c(=O)cc(N6CC7CCC(C6)O7)oc45)cccc3c2c1 [NU5455]
- % displacement: 1.9%
